Measured values reported in patent US7041704B2, “Methods of treating gastrointestinal tract disorders using sodium channel modulators” (Dynogen Pharmaceuticals, Inc., priority 2003, dated 2006).

Key:
[1] = target: TTX-R sodium currents in GI tract afferent neurons (Rattus norvegicus, UniProt Q62968); test: Whole cell patch-clamp, tonic block of TTX-R sodium currents, cumulative concentration-response; format: cell-based; conditions: bath application; four GI tract afferent neurons
Procedure: (§1) Labeling of GI tract afferent neurons: Adult female Sprague-Dawley rats (150–300 g) were deeply anesthetized with pentobarbital anesthesia and placed on isoflurane maintenance anesthesia. A ventral midline incision was made through the abdominal skin and musculature, exposing the GI tract. Five injections of the fluorescent dyes Di-I (5 µl each of 25 mg/ml Di-I in DMSO) or Fast Blue (4% w/v) were made into the wall of the colon to label primary afferent fibers innervating the GI tract. The areas were rinsed with sterile saline to eliminate nonspecific spread of dye, and the incision was closed. […] Labeled neurons were identified in vitro using fluorescence optics. […]
(§2) In most experiments, neurons were incubated in culture medium containing the FITC-labeled lectin BSI-B4 (IB4, […]) at 37° C. for 5 min before recording. The coverslip was washed with extracellular recording solution for 1 min before being placed in a recording chamber mounted on the stage of an inverted microscope equipped with fluorescence optics. […]
(§3) Sodium currents were recorded from DRG neurons using standard electrophysiologic protocols. […] Currents were recorded using a patch-clamp amplifier and digitized at 3–10 kHz for acquisition. Neuronal input resistance and membrane capacitance were determined from the amplitude and kinetics of the current response to a voltage pulse from a holding potential of −50 mV. […]

[2] = test system: sodium currents in colon DRG neurons; test: Whole cell patch-clamp, activity-dependent (use-dependent) modulation of sodium currents, slow vs fast stimulation; format: cell-based, rat; conditions: 100 µM lamotrigine; slow (0.2 Hz) vs fast (17 Hz) step depolarizations from −50 to 0 mV; three neurons; P<0.05 vs slow stimulation
Procedure: as §1, §2, §3

TTX-R sodium currents in GI tract afferent neurons, sequence (Q62968 whole entry, looked up): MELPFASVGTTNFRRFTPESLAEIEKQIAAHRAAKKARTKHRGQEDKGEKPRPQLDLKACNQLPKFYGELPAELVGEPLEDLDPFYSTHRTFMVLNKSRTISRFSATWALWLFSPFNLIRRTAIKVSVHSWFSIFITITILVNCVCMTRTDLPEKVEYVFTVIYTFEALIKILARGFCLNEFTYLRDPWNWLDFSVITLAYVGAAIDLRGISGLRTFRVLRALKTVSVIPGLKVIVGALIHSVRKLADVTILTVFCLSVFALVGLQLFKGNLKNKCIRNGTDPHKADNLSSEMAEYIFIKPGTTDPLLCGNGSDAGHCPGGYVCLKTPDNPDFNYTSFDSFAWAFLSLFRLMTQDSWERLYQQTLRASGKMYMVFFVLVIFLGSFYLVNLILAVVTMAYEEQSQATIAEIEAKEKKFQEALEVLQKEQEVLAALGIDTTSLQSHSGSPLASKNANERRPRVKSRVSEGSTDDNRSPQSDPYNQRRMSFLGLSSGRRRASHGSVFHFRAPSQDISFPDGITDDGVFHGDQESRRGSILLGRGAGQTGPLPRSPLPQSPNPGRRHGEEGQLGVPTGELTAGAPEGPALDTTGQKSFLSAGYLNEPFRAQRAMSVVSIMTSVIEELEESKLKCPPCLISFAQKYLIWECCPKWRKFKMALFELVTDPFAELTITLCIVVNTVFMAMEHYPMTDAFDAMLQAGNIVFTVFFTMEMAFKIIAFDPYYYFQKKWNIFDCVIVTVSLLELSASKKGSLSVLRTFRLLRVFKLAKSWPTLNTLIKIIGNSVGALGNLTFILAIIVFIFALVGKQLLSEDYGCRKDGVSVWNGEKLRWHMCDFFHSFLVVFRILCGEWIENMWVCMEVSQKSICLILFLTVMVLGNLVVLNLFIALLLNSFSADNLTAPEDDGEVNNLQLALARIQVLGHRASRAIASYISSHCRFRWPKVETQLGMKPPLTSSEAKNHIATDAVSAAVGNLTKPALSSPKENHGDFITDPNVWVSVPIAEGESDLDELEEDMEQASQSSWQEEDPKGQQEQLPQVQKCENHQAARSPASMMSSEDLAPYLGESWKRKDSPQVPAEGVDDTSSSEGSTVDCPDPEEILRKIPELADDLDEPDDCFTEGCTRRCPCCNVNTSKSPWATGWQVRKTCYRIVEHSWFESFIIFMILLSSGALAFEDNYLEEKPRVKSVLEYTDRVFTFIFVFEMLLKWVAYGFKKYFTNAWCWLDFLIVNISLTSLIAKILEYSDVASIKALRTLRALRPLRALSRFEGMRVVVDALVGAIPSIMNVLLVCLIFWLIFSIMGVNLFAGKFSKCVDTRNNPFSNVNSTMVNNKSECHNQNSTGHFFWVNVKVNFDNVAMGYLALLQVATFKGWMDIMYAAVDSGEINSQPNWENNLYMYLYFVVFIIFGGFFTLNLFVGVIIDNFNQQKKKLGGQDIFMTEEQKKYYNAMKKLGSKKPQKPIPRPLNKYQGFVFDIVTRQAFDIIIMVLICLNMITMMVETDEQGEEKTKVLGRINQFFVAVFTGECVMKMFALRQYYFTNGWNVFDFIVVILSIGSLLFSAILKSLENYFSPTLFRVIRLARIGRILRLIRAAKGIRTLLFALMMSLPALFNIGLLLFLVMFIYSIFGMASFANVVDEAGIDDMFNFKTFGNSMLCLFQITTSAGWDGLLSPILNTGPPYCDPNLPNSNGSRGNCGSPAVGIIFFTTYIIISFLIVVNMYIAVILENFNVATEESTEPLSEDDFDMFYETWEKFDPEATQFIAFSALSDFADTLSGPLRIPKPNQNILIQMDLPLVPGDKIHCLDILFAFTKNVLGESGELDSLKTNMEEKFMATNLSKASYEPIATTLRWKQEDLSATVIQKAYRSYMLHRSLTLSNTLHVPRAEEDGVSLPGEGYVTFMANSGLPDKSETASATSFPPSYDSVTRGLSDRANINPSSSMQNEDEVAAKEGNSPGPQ

Row | SMILES | block of TTX-R sodium currents (in words) [1] | mean peak sodium current amplitude (mean % control amplitude) [2]
1 | Nc1c(Br)cc(Br)cc1CNC1CCC(O)CC1 (centres unmarked) [Ambroxol] | concentration-dependent reversible block | 
2 | Nc1nnc(-c2cccc(Cl)c2Cl)c(N)n1 [lamotrigine, 6-(2,3-Dichlorophenyl)-1,2,4-triazine-3,5-diamine] |  | decreased to a greater extent under fast stimulation conditions
